Measurements from the supplement of paper PMC11451515.

Columns and labels:
Assay in all cases: AUC of viability dose-response curve (% viability x log10 dose units); higher = less sensitive
Details in all cases: 48 h
[1] = tested on: NOMO1
How it was run: (§1)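 Library compounds in DMSO were applied for 48 h at 37°C at 11 threefold doses (47 μM to 0.79 nM) to medium-adapted leukemia cells in 1536-well plates holding 500 or 1000 cells/well. Luminescence from CellTiter-Glo One was normalised plate by plate against DMSO and cell-free wells. Area under the curve came from trapezoidal integration of a log-logistic fit, after scaling curves that rose above full viability and discarding those that failed quality control. The fit had four parameters and used log10 doses.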

[2] = tested on: P12-Ichikawa
How it was run: as §1

[3] = tested on: SEM cells
How it was run: as §1

[4] = RPMI 5 mM glucose + 10% dialyzed FBS

SMILES | AUC of viability dose-response curve ([1]; HPLM + 10% dialyzed FBS) | AUC of viability dose-response curve ([1]; RPMI 5 mM glucose + 10% FBS) | AUC of viability dose-response curve [1, 4] | AUC of viability dose-response curve ([2]; HPLM + 10% dialyzed FBS) | AUC of viability dose-response curve ([2]; RPMI 5 mM glucose + 10% FBS) | AUC of viability dose-response curve [2, 4] | AUC of viability dose-response curve ([3]; HPLM + 10% dialyzed FBS) | AUC of viability dose-response curve ([3]; RPMI 5 mM glucose + 10% FBS) | AUC of viability dose-response curve [3, 4]
O=C(C1CCCCC1)N1CC(=O)N2CCc3ccccc3C2C1 (stereo not given) | 445 | 466 | 452 | 386 | 385 | 369 | 434 | 407 | 406
Cl.Cl.Fc1ccc(C(OCCN2CCN(CCCc3ccccc3)CC2)c2ccc(F)cc2)cc1 | 438 | 457 | 446 | 470 | 467 | 465 | 460 | 458 | 458
Clc1ccc(COC(Cn2ccnc2)c2ccc(Cl)cc2Cl)cc1 (stereo not given) | 473 | 473 | 470 | 477 | 463 | 452 | 408 | 468 | 431
CCC(=O)O[C@@]1([C@H](C)C[C@H]2[C@@H]3C[C@H](F)\C4=C\C(=O)\C=C/[C@]4(C)[C@@]3(F)[C@@H](O)C[C@]12C)C(=O)SCF | 455 | 465 | 439 | 342 | 292 | 290 | 328 | 325 | 280
CN(C)CCC=C1C2=C(C=CC=C2)\C=C/C3=C1C=CC=C3 | 418 | 440 | 438 | 449 | 401 | 469 | 459 | 438 | 466
O=C(NC1CC1)c1cccc(-c2ccc3c(NC(=O)C4CC4)n[nH]c3c2)c1 | 450 | 448 | 451 | 418 | 419 | 426 | 430 | 425 | 422
C[C@@H]1CN(CC(=O)N2CC(C)(C)c3ncc(Cc4ccc(F)cc4)cc32)[C@@H](CN2CCOC[C@H]2C)CN1 | 442 | 456 | 459 | 463 | 449 | 477 | 448 | 402 | 465
COc1cc(/C=C/C(=O)CC(=O)/C=C/c2ccc(O)c(OC)c2)ccc1O | 419 | 440 | 441 | 416 | 431 | 433 | 406 | 409 | 417
COc1cc(N2CCC(N3CCN(C)CC3)CC2)ccc1Nc1ncnc(Nc2ccccc2[S+](=O)([O-])C(C)C)n1 | – | – | – | 447 | 458 | 451 | 361 | 354 | 400
CN[C@@H](C)C(=O)N[C@H]1CCCC[C@H]2CC[C@@H](C(=O)N[C@@H](c3ccccc3)c3cn(CCCCc4ccc(CCCCn5cc([C@@H](NC(=O)[C@@H]6CC[C@@H]7CCCC[C@H](NC(=O)[C@H](C)NC)C(=O)N76)c6ccccc6)nn5)cc4)nn3)N2C1=O | 250 | 325 | 297 | 465 | 471 | 450 | 431 | 417 | 418
COc1ccc(CCC(=O)Nc2nc3ccc(Cl)cc3s2)cc1OC | 454 | 458 | 455 | 466 | 472 | 462 | 463 | 461 | 472
CCCCc1oc2ccc(NS(C)(=O)=O)cc2c1C(=O)c1ccc(OCCCN(CCCC)CCCC)cc1 | 367 | 332 | 361 | 414 | 409 | 413 | – | – | –
Cc1cc(SCc2sc(-c3ccc(C(F)(F)F)c(F)c3)nc2C)ccc1OCC(=O)O | 458 | 439 | 467 | 466 | 449 | 439 | 461 | 432 | 446
N/C(=N\C(=O)c1nc(Cl)c(N)nc1N)NCc1ccccc1 | 448 | 405 | 447 | 465 | 449 | 436 | 449 | 407 | 436
Cc1cnc(Nc2ccc(OCCN3CCCC3)cc2)nc1Nc1cccc([S+](=O)([O-])NC(C)(C)C)c1 | 477 | 470 | 473 | 469 | 471 | 468 | 427 | 458 | 447
COc1ccc2cccc(CCNC(C)=O)c2c1 | 434 | 415 | 440 | 470 | 468 | 460 | 451 | 453 | 452
NC12CC3CC(CC(C3)C1)C2 | 448 | 470 | 461 | 466 | 466 | 476 | 435 | 401 | 371
COc1cc2ncnc(Nc3ccc(F)c(Cl)c3)c2cc1OCCCN1CCOCC1 | 425 | 452 | 443 | 446 | 446 | 463 | 408 | 419 | 425
CC(C)[C@@H](N(CCCN)C(=O)C1=CC=C(C)C=C1)C/2=C(\CC3=CC=CC=C3)C(=O)C4=C(O2)C=C(Cl)C=C4 | – | – | – | – | – | – | 116 | 96.8 | 99.8

SMILES | AUC of viability dose-response curve ([1]; HPLM + 10% dialyzed FBS) | AUC of viability dose-response curve ([1]; RPMI 5 mM glucose + 10% FBS) | AUC of viability dose-response curve [1, 4] | AUC of viability dose-response curve ([2]; HPLM + 10% dialyzed FBS) | AUC of viability dose-response curve ([2]; RPMI 5 mM glucose + 10% FBS) | AUC of viability dose-response curve [2, 4] | AUC of viability dose-response curve ([3]; HPLM + 10% dialyzed FBS) | AUC of viability dose-response curve ([3]; RPMI 5 mM glucose + 10% FBS) | AUC of viability dose-response curve [3, 4]
c1cc(OCCN2CCCCC2)cc(-c2n[nH]c3ccc(-c4nc[nH]n4)cc23)c1 | 467 | 463 | 468 | – | – | – | 412 | 441 | 413
c1ccc2c(Oc3nc(Nc4ccc(N5CCOCC5)cc4)c4ncn(C5CCCCC5)c4n3)cccc2c1 | 439 | 440 | 466 | 451 | 462 | 466 | 462 | 452 | 458
c1ccc(-c2nn3c(c2-c2ccnc4cc(OCCN5CCOCC5)ccc24)CCC3)nc1 | 450 | 467 | 471 | 438 | 420 | 448 | 458 | 468 | 472
CCCCOc1ccc(C(=O)Nc2ccc(F)cc2F)cc1 | 437 | 420 | 433 | 423 | 422 | 408 | 377 | 383 | 385
CCCn1c(=O)c2[nH]c(-c3cnn(Cc4cccc(C(F)(F)F)c4)c3)nc2n(CC)c1=O | 394 | 443 | 413 | 446 | 388 | 438 | 470 | 467 | 467
CN(C)c1nc(N(C)C)nc(N(C)C)n1 | 440 | 454 | 454 | 435 | 436 | 441 | 465 | 453 | 461
CC1(C)OC/2=C(\[C@H](NCC3=CC=CC=C3)[C@@H]1O)C(=O)C4=CC=CC=C4C2=O | – | – | – | 424 | 397 | 416 | 417 | 363 | 413
O=P(O)(O)C(O)(Cc1cccnc1)P(=O)(O)[O][Na] (stereo not given) | – | – | – | – | – | – | 411 | 409 | 406
CO[C@@H]1[C@H](N(C)C(=O)c2ccccc2)C[C@H]2O[C@]1(C)n1c3ccccc3c3c4c(c5c6ccccc6n2c5c31)C(=O)NC4 | 415 | 424 | 412 | 373 | 380 | 386 | 313 | 308 | 305
CCCn1c(=O)c2[nH]c(C34CC5CC3C[C@@H](C5)C4)nc2n(CCC)c1=O | 454 | 442 | 463 | 462 | 410 | 460 | 477 | 416 | 457
CCC(CC)[C@H](NC(C)=O)[C@@H]1[C@H](O)[C@@H](C(=O)O)C[C@H]1NC(=N)N | 404 | 407 | 395 | – | – | – | 335 | 394 | 365
C[Se]CCC(N)C(=O)O (stereo not given) | 406 | 406 | 394 | 407 | 390 | 388 | – | – | –
O=C1[O][Pt]2([NH]C3CCCCC3[NH]2)[O]C1=O (stereo not given) | 400 | 403 | 419 | – | – | – | – | – | –
CN1C(=O)COc2c(C(=O)NC3CN4CCC3CC4)cc(Cl)cc21 (stereo not given) | 448 | 464 | 439 | – | – | – | 457 | 453 | 471
NC/1=N/C(=O)N(/C=C1)[C@H]2CC[C@@H](CO)O2 | 435 | 404 | 422 | – | – | – | 437 | 415 | 385
CN(C(=O)c1ccc(F)cc1C(F)(F)F)C1CCN(c2nnc(-c3ccnn3C)c3ccccc23)CC1 | – | – | – | 387 | 365 | 355 | 331 | 373 | 326
CN1[C@@H]2CC(O)C[C@H]1[C@@H]1O[C@@H]12 (stereo not given in full) | 451 | 453 | 451 | 455 | 448 | 454 | – | – | –
c1ccc2c(-c3cnn4cc(-c5ccc(N6CCNCC6)cc5)cnc34)ccnc2c1 | – | – | – | – | – | – | 355 | 379 | 394
CCN(CC)CCOC1=CC=C(NC2=NC=C3\C=C(/C(=O)N(C)C3=N2)C4=C(Cl)C=CC=C4Cl)C=C1 | 343 | 359 | 355 | 371 | 365 | 367 | – | – | –
